Where two headings read alike, the source gives them in different places.
Legend:
dogs = conditions: cited from earlier work
TGF-beta = conditions: 30 days after 30 Gy; 5 mg/kg I.P. on day 7 and 9 post-irradiation; vs 30 Gy alone
Text: (§1) Cytokine concentrations were from multiple samples, n=3 or 4 from single mice: one control, one receiving radiation alone and one receiving combined drug and radiation.

TNF-alpha = conditions: 30 days after 30 Gy; 5 mg/kg I.P. on day 7 and 9 post-irradiation; vs 30 Gy alone
Text: as §1

Balb/c mice = conditions: 5 mg/kg i.p. 24 hours after 7 Gy
C57BL/6 mice [1] = conditions: for Median survival: 5 mg/kg I.P.
C57BL/6 mice [2] = conditions: 6.5 Gy TBI; 5 mg/kg 72 h after the radiation; 12 days after radiation exposure; n=8
mice [3] = conditions: data not shown
C57BL/6 mice [4] = conditions: for cutaneous injury (skin reaction): 5 mg/kg I.P. twice, one week after radiation and 48 hours later
Method: We exposed the legs of mice to 25 or 30 Gy radiation at a dose rate of approximately 5 Gy per minute. Subsequently, one week later, we administered Mozobil [LP.] at 5 mg/kg dose followed by another Mozobil administration [5 mg/kg, I.P.] 48 hours later. We monitored the test mice for lesions relating to skin damage.
Skin damage to the hind leg of C57BL/6 mice was measured using a semi-quantitative scale (TABLE ONE).

[5] = rapid peak and subsequent clearance; cited from earlier work
mice [6] = conditions: total body dose of 8 Gy; Mozobil I.P. 5 mg/kg single injection days later
Method: We exposed mice to radiation, total body dose of 8 Gy at a rate of approximately 1 Gy per minute. Subsequently, days later, we administered Mozobil [I.P.] at 5 mg/kg dose as a single injection. We monitored the test mice for lethality.

normal donors = conditions: cited from earlier work
hematopoietic stem cells = conditions: cited from earlier work
[7] = dogs after lethal dose of TBI, AMD-3100 mobilized peripheral blood mononuclear cells

c1cc(CN2CCCNCCNCCCNCC2)ccc1CN1CCCNCCNCCCNCC1 [plerixafor]
tolerability (adverse effects) (dogs; dog, in vivo): well tolerated without noticeable adverse effects
Median days to neutrophil recovery (dogs; [7]): 9 days
Median days to platelet recovery (dogs; [7]): 25 days
lethality after total body irradiation (dogs; dogs): mitigates lethality
TGF-beta in irradiated skin (TGF-beta): significantly reduced
TNF-alpha in irradiated skin (TNF-alpha): significantly reduced
Median survival (Balb/c mice): 18 days
Survival at 30 days (C57BL/6 mice [1]; 5 mg/kg I.P. administered 24 h after radiation exposure): 0%
Survival at 30 days (C57BL/6 mice [1]; 5 mg/kg I.P. administered 48 h after radiation exposure): 14%
Survival at 30 days (C57BL/6 mice [1]; 5 mg/kg I.P. administered 72 h after radiation exposure): 69%
Median survival (C57BL/6 mice [1]; 48 h between radiation and drug): 18 days
Median survival (C57BL/6 mice [1]; 72 h between radiation and drug): > 30 days
mitigation from TBI-induced lethality (C57BL/6 mice [1]; given after total body irradiation): significant mitigation
number of endogenous spleen colonies (mean) (C57BL/6 mice [2]): 47±9
Leg contraction (percent leg extension relative to the unirradiated leg) (mice [3]): significantly improved
cutaneous injury (skin reaction) (C57BL/6 mice [4]; 25 Gy, to day 60): soon resolved completely
cutaneous injury (skin reaction) (C57BL/6 mice [4]; 30 Gy, approximately day 60): had some hair loss but were otherwise normal
skin damage (lesions) (C57BL/6 mice [4]; legs, 25 or 30 Gy, 5 mg/kg one week later and again 5 mg/kg I.P. 48 hours later): significantly reduced
clearance of the drug after injection [5]: ≤ 24 h
survival (lethality) (mice [6]): significantly enhanced
side effects of single-dose administration (normal donors): very minor
mobilization of hematopoietic stem cells from the bone marrow to the bloodstream (hematopoietic stem cells; mice, dogs, and humans): strong inducer
G-CSF-induced mobilization of HPCs (hematopoietic stem cells; mouse and human hematopoietic progenitor cells): synergistically augmented

From patent US10639296B2, “Methods to mitigate injury from radiation exposure” (priority 2009, dated 2020)
